Values of other authors in patent US6740655B2, “Pyrimidine carboxamides useful as inhibitors of PDE4 isozymes” (Pfizer Inc, priority 2000, dated 2004).
Entries after “also recorded” stand apart in the source; their conditions may differ. Like-named read-outs stand apart in the source and are kept apart here.

Legend:
allergic rhinitis = settings: in vivo
[1] = test system: late reactions to inhaled allergen; settings: b18: 9.5 days oral, 15 and 30 mg
[2] = in vivo
[3] = test system: high-affinity rolipram binding site (Sr)
[4] = test system: inflammatory parameters, atopic dermatitis
[5] = doses up to 400 mg, 54 subjects
[6] = test system: antigen-induced eosinophilia; settings: rat
[7] = rat
tumor cells = settings: at micromolar concentrations
[8] = test system: lipopolysaccharide-induced bowel erythrocyte extravasation; settings: rats; b385: pretreatment i.p. 3×, pentoxifylline 5 to 50, rolipram 10 to 30, debufylline 0.1 to 3 mg/kg
[9] = test system: lipopolysaccharide-induced mesenteric blood flow fall
[10] = test system: T-cell mediated hepatic failure; settings: mouse, in vivo

In the case of `O=C(Nc1c(Cl)cncc1Cl)C(=O)c1cn(Cc2ccc(F)cc2)c2ccc(O)cc12` [AWD-12,281], the “activity in rat model of allergic rhinitis” value (allergic rhinitis) is given as “active”.
In the case of `COc1ccc([C@H](Cc2ccncc2)c2ccccc2)cc1OC1CCCC1` [CDP840], the “late reactions / late-phase response” value [1] is listed as “suppression of late reactions; also recorded: significant inhibition of late-phase response”.
In the case of `COc1ccc(C2CNC(=O)NC2)cc1OC1CC2CCC1C2` (stereo not drawn) [CP-80,633], the “emesis / nausea and vomiting” value [2] is given as “elicit emesis”, the “affinity at the Sr” value [3] is given as “high affinity” and the adverse effects ([4]; human, in vivo) is given as “no adverse effects”. The inflammatory parameters ([4]; topical, bilaterally over eight days, twenty patients) was “effectively inhibit all of the inflammatory parameters tested”.
In the case of `COc1cc2c3c(c1)C(c1ccccc1)=N[C@@H](NC(=O)c1cc4ccccc4cn1)C(=O)N3CC2` [Cl-1018], the adverse events [5] is given as “no adverse events were reported”, the IC50 (PDE4 from U937 cells; read-out: IC50 PDE4 in U937 cells) is given as 1100 nM and the “inhibition of antigen-induced eosinophilia” value [6] is given as “active”. The “oral potency ED50” value ([6]; oral) was 5 mg/kg and the oral bioavailability [7] was 57%.
For `COC(=O)c1ccc2c(=O)n(C3NC(c4ccccc4)c4cc(N)cc5c4N(CC5)C3=O)cnc2c1` (stereo not drawn) [Formula (0.0.53)], the IC50 (PDE4 from U937 cells; read-out: IC50 against the PDE4 from U937 cells) is given as 3 nM.
In the case of `Clc1nc2c(N3CCCC3)nc(N3CCNCC3)nc2nc1NCc1ccccc1` [Formula (0.0.55)], the “growth of tumor cells” value (tumor cells) is given as “inhibit the growth of tumor cells”.
In the case of `O=S1(=O)CCN(c2nc(NC3CC3)nc(C3CC3)n2)C1` [Formula (0.0.56)], the “relaxant activity in guinea-pig trachea model” value (guinea-pig trachea) is listed as “potent relaxant agents”.
In the case of `CC1CC1c1nc(NC2CC2)nc(N2CCOCC2)n1` (stereo not drawn) [Formula (0.0.57)], the “relaxant activity in guinea-pig trachea model” value (guinea-pig trachea) is listed as “potent relaxant agents”.
For `O=C(NC1NC(c2ccccc2)c2cccc3c2N(CC3)C1=O)c1ccncc1` (stereo not drawn) [PD-168787], the “inhibition of antigen-induced eosinophilia” value [6] is given as “activity”.
In the case of `COc1ccc(CC2CNC(=O)N2)cc1OC1CCCC1` (stereo not drawn) [Ro 20-1724], the “adverse systemic or cutaneous effects” value (psoriatic lesions; in vivo) is given as “without adverse systemic or cutaneous effects” and the “effect on psoriatic lesions” value (psoriatic lesions; versus vehicle) is given as “improve psoriatic lesions”.
In the case of `CCCCn1c(=O)c2c(ncn2CC(C)=O)n(CCCC)c1=O` [denbufylline], the “lipopolysaccharide-induced bowel erythrocyte extravasation” value [8] is given as “attenuated” and the “intestinal hypoperfusion in dogs” value [9] is given as “attenuated”.
For `Cc1[nH]c(=O)c(C#N)cc1-c1ccncc1` [milrinone], the “relaxant activities of isoproterenol and forskolin” value (pulmonary artery rings) is given as “The same effect has been observed”.
In the case of `COc1ccc(C2CNC(=O)C2)cc1OC1CCCC1` (stereo not drawn) [rolipram], the “concanavalin A-induced IL4 release” value [10] is given as “suppress”, the “lipopolysaccharide-induced bowel erythrocyte extravasation” value [8] is given as “attenuated” and the “intestinal hypoperfusion in dogs” value [9] is given as “attenuated”.
